Data reported in patent EP3723745B1, “PHENOXY ACIDS FOR THE TREATMENT OF NEUROMUSCULAR DISORDERS” (NMD Pharma A/S, priority 2017, dated 2019).

Key:
[1] = target: T1, human CIC-1 channels (Homo sapiens, UniProt P35523); test: Automated patch-clamp on human CIC-1 expressed in CHO cells; assay type: cell-based; settings: difference in half activation voltage, compound added intracellularly vs control cell patches; positive shift = CIC-1 inhibition
T1 construct: host or cells: CHO cells constitutively expressing human ClC-1
T1 sequence (P35523 whole entry): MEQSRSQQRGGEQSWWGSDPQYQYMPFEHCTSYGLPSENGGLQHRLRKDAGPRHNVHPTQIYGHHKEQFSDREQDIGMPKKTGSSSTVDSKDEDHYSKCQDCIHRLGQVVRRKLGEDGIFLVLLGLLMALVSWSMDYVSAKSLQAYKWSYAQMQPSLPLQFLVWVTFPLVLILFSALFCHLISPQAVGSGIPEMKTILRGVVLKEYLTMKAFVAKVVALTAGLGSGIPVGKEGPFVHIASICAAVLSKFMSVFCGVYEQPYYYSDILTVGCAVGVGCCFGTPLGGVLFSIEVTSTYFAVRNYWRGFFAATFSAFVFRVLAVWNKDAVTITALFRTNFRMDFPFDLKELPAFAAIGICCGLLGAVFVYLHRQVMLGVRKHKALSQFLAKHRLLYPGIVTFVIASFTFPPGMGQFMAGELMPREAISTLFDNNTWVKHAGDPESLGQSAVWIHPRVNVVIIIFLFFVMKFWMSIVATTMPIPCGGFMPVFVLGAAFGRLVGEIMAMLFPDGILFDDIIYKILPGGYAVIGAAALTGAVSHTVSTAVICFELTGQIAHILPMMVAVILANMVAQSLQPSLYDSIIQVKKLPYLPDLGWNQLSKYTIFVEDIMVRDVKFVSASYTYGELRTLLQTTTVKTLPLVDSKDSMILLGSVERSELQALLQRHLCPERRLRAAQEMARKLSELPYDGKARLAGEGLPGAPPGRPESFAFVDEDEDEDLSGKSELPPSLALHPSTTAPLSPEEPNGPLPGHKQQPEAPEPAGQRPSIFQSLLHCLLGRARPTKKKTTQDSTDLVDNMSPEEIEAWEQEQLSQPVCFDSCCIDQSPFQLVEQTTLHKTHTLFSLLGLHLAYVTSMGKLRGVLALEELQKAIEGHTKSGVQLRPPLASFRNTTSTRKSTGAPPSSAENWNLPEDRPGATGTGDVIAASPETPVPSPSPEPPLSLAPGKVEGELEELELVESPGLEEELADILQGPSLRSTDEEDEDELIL
Method: The investigatory goal of these experiments was to evaluate how compounds affect the open probability and current amplitude of human CIC-1 channels expressed in CHO cells. Experiments were performed using an automated patch clamp system that allowed high throughput testing of whole cell patches together with both intracellular and extracellular addition of compound.
Automated whole cell patch clamp experiments were performed with the Qpatch 16 system (Sophion Bioscience, Ballerup, Denmark) at room temperature. Data acquisition and analysis were performed in the Qassay software (ver. 5.6, Odense).
To evoke CIC-1 currents in whole cell patches, the membrane potential was initially stepped from a holding potential of -30 mV to +60 mV for 100 ms and then to various test voltages (sweeps) ranging from +120 mV to -140 mV in steps of 20 mV for 300 ms. To obtain tail currents, the membrane potential was stepped to -100 mV after each test voltage for 300 ms and then relaxed to -30 mV for 2 sec between sweeps (Figure 3). I/V relationships for whole cell instant and steady state current amplitudes were obtained by plotting average current densities at the beginning and at the end of the 300 ms step against the membrane potential (Figure 4).
In order to determine the relative overall open probability (P0), the instantaneous tail currents were normalized to the maximal tail current obtained following the most positive voltage step and plotted against the test voltage. Plots of normalized tail currents from each whole cell patch were then fitted to a Boltzmann function allowing determination of half activation voltages (V1/2, Figure 5).
For automated patch clamp experiments extracellular solutions contained: 2 mM CaCl2, 1 mM MgCl2, 10 mM HEPES, 4 mM KCI, 145 mM NaCl, 10 mM Glucose, pH adjusted to 7.4 with NaOH (2 M). Osmolality adjusted to -320 using sucrose.
Intracellular solutions contained: 80 mM CsF, 60 mM CsCI, 5/1 mM KOH/EGTA, 10 mM HEPES, 10 mM NaCl, pH adjusted to 7.2 with NaOH (2 M). Osmolality adjusted to -320 mOsm using sucrose.
Cells used in patch clamp experiments were Chinese hamster ovary cells (CHO) constitutively expressing human CIC-1 channels. The amino acid sequence encoded by the cDNA used to create this cell line was identical to the translated sequence for GenBank accession number NM_000083.2. Cells were produced by Charles River (Catalogue CT6175, Cleveland OH, USA) in a cryopreserved format. Experiments were performed on the cells directly after thawing (3 × 10^6 cells used in each experiment).
To evaluate the compound effect on CIC-1, when applied directly to the intracellular side of the cell membrane, the half activation voltage, V1/2, was determined from whole cell patches with compound added to the intracellular solution and then compared to V1/2 determined from control cell patches with only vehicle added to the intracellular solution. Additionally, the effect of extracellular added compound was evaluated by determine V1/2 and steady state current amplitudes before and after exchanging the extracellular solution to contain compound.
The difference in half activation voltage of CIC-1 channels, ΔV1/2, was determined as the difference between the cell patches treated intracellularly with compound and control cells patches and is reported in Table 4 below. A positive shift in ΔV1/2 is reflecting CIC-1 channel inhibition by the tested compound. P-values of <0.05 is considered significant. […]

[2] = tested on: soleus muscles; test: Measurement of force in an in vitro model: isolated rat nerve-muscle preparation with tubocurarine; settings: Rattus norvegicus, 40 min; percentage of initial force restored after 40 mins with 50 µM test compound; tubocurarine (115 nM) for 90 mins; read-out: Point increase
Method: Recovery of force is quantified as the percentage of the force prior to tubocurarine that is recovered by the compound.
The current invention relates to compounds that inhibit CIC-1 ion channels and increase muscle excitability and thereby improve muscle function in clinical conditions where muscle activation is failing. Such conditions result in loss of contractile function of skeletal muscle, weakness and excessive fatigue. In this series of experiments the compounds were tested for their ability to restore contractile function of isolated rat muscle when the neuromuscular transmission had been compromised akin to neuromuscular disorders.
Experimentally, soleus muscles from 4-5 wk old rats were isolated with the motor nerve remaining attached. The nerve-muscle preparations were mounted in experimental setups that enabled electrical stimulation of the motor nerve. Stimulation of the motor nerve led to activation of the muscle fibres and ensuing force production that was recorded.
After mounting the nerve-muscle preparation in the experimental setup, the contractile function of the muscle was initially assessed under the control conditions (Figure 2A). […] The experimental condition mimics the failing neuromuscular transmission in a range of neuromuscular disorders. After addition of tubocurarine the contractile force declined over the next 90 mins to 10-50 % of the control force. 50 µM of the test compound was then added and the contractile force recovered despite the continued presence of tubocurarine. To quantify the ability of the compound to restore force the percentage of the initial force that was restored was determined after 40 mins of compound exposure (Figure 2B) and the point increase is reported in Table 3. Table 3: Percentage increase of initial force that was restored using compounds of the invention

[3] = target: T2, CIC-1 channels (Rattus norvegicus, UniProt P35524); test: Electrophysiological measurement of compound inhibition of CIC-1 in rat muscle (Gm, three micro-electrodes technique); assay type: cell-based; settings: reduction of Gm in fibres of whole rat soleus muscles, approx. 30°C; n = number of experiments
T2 construct: from tissue; host or cells: intact soleus muscle of 12-14-week old Wistar rats
T2 sequence (P35524 1-994): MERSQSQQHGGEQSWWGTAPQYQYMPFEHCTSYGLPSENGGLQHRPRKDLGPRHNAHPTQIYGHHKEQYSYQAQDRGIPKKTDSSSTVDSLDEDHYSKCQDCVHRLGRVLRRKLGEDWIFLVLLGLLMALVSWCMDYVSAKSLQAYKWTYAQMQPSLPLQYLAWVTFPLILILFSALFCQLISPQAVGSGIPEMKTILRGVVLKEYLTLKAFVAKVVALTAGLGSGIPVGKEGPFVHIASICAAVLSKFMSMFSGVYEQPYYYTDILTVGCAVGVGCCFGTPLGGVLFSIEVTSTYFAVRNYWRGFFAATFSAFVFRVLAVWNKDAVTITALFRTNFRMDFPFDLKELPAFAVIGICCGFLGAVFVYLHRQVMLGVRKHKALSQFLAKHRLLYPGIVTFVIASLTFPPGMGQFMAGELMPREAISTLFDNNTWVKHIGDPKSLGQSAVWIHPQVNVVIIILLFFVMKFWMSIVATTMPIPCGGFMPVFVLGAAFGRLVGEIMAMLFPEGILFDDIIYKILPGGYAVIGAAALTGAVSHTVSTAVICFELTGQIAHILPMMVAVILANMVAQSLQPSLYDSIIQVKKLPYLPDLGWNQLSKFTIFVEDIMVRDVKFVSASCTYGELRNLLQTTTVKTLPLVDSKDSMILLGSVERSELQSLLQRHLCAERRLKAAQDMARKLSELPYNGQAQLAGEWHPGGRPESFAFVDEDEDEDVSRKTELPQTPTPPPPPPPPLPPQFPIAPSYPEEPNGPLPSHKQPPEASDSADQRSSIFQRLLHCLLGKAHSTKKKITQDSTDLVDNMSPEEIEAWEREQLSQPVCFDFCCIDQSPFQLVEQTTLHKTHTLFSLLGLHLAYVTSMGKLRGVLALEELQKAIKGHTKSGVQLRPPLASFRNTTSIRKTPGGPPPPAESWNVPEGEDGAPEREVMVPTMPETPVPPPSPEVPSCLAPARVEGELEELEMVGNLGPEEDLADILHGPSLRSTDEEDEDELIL
Description: Table 2: Inhibition of CIC-1 ion channel using compounds of the invention

[4] = tested on: female Lewis rats; test: Measurement of in situ muscle contractile characteristics (isometric hindlimb force, cisatracurium block); assay type: in vivo, rat
Method: Isometric hindlimb force was measured in 12-week old female Lewis rats in the presence and absence of compound.
Rats were placed under anesthesia with isoflurane (2-4%), intubated and subsequently connected to a micro ventilator (Microvent 1, Hallowell EMC, US). Two stimulation electrodes were inserted through the skin to stimulate the sciatic nerve. A small incision was made proximal to the ankle, to expose the Achilles tendon, which was tied by cotton string, and connected to a force transducer (Fort250, World Precision Instruments) with adjustable position (Vernier control). The Achilles tendon was then cut distal to the attached cotton string. The rat was placed on a heated pad, and to prevent movement artefacts from contraction of the ankle dorsiflexors, the foot was fixated by tape on a footplate.
Muscle contractile properties were assessed by applying an electrical current (under supramaximal voltage conditions) to the nerve and recording the force generated by the muscle. The muscle was stretched until maximal force was obtained, when assessed by 2 Hz stimulation. Isometric force was measured every 30 seconds at 12 Hz (Twitch), 10 pulses, and at every 5 minutes at 80 Hz (Tetanic) for 1 second (80 pulses). This stimulation pattern was employed throughout the experiment, expect in few cases where 80 Hz stimulation was replaced by 12 Hz (10 pulses). […] When the level of neuromuscular inhibition was stable, the test article was injected i.v. at the chosen concentration. The effect of test article was assessed on its ability to increase force generated from the stimulation pattern applied. The effect was assessed in the ability to increase force per se (tetanic, 80 Hz, stimulation), and the ratio between individual twitch peaks (12 Hz stimulation). The effect was monitored for at least 1 hour after injection of test article. In addition, the time from injection of test article to maximal effect on force (both twitch and tetanic) was noted and the time for the effect to disappear (return to baseline), if possible. When appropriate the infusion of neuromuscular blocking agent was ceased, with the stimulation pattern continued, and the return of force to control levels was monitored. Animals were sacrificed by cervical dislocation while still fully sedated.

ΔV1/2 [1] | EC50 [3] | SMILES | activation at 50 µM [2] | average increase in twitch peaks ([4]; 20 mg/kg i.v., 12 Hz, cisatracurium infusion) | average increase in tetanic force ([4]; 20 mg/kg i.v., 80 Hz, cisatracurium infusion) | restore force to muscles in vivo ([4]; muscles partially inhibited by a neuromuscular blocker, summary in words)
9.4 mV |  | C[C@H](Oc1ccc(Br)cc1I)C(=O)O [Compound A-8, (2S)-2-(4-bromo-2-iodophenoxy)propanoic acid] |  |  |  | 
15.2 mV |  | O=C(O)[C@@H](Oc1ccc(Br)cc1F)C(F)F [Compound A-9, (2R)-2-(4-bromo-2-fluorophenoxy)-3,3-difluoropropanoic acid] |  |  |  | 
19.7 mV | 3.8 ± 0.8 µM | O=C(O)[C@H](CF)Oc1ccc(Br)cc1 [Compound A-26, (2R)-2-(4-bromophenoxy)-3-fluoropropanoic acid] | 39% |  |  | 
 | 7.2 ± 2.8 µM | C[C@H](Oc1ccc(Br)cc1F)C(=O)O [Compound A-31, (2S)-2-(4-bromo-2-fluorophenoxy)propanoi c acid] | 42% | 7.3% | 29.8% | can restore force
17.4 mV |  | C[C@H](Oc1ccc(Cl)cc1F)C(=O)O [Compound A-38, (2S)-2-(4-chloro-2-fluorophenoxy)propanoi c acid] |  |  |  | 
5.19 mV | 4.2 ± 0.6 µM | C[C@H](Oc1ccc(Br)cc1Br)C(=O)O [Compound A-40, (2S)-2-(2,4-dibromophenoxy)propan oic acid] | 20% |  |  | 
28.2 mV | 6.3 ± 2.4 µM | CC[C@H](Oc1ccc(Br)cc1F)C(=O)O [Compound A-58, (2S)-2-(4-bromo-2-fluorophenoxy)butanoic acid] | 44% |  |  | 
27.4 mV | 7.2 µM | C#CC[C@H](Oc1ccc(Br)cc1Br)C(=O)O [Compound A-66, (2S)-2-(2,4-dibromophenoxy)pent-4-ynoic acid] | 51% |  |  | 
37.8 mV | 9.4 ± 0.6 µM | C#CC[C@H](Oc1ccc(Br)cc1Cl)C(=O)O [Compound A-67, (2S)-2-(4-bromo-2-chlorophenoxy)pent-4-ynoic acid] | 40% |  |  | 
32.6 mV |  | C#CC[C@H](Oc1ccc(Br)cc1F)C(=O)O [Compound A-69, (2S)-2-(4-bromo-2-fluorophenoxy)pent-4-ynoic acid] |  |  |  | 
10.4 mV | 4 ± 0.1 µM | COC[C@H](Oc1ccc(Br)cc1Br)C(=O)O [Compound A-74, (2S)-2-(2,4-dibromophenoxy)-3-methoxypropanoic acid] | 42% |  |  | 
19.0 mV |  | [2H][C@@](CF)(Oc1ccc(Br)cc1)C(=O)O [Compound A-82, (2R)-2-(4-bromophenoxy)-3-fluoro(2-^2H)propanoic acid] | 48% |  |  | 
12.5 mV | 10 ± 9.5 µM | O=C(O)[C@H](CCF)Oc1ccc(Br)cc1F [Compound A-85, (2S)-2-(4-bromo-2-fluorophenoxy)-4-fluorobutanoic acid] | 37% |  |  | 
10.3 mV | 8.7 ± 1.4 µM | O=C(O)[C@@H](Oc1ccc(Br)cc1F)C1CC1 [Compound A-89, (2S)-2-(4-bromo-2-fluorophenoxy)-2-cyclopropylacetic acid] | 33% |  |  | 
10.3 mV | 12.5 ± 1.4 µM | C[C@@H](F)[C@H](Oc1ccc(Br)cc1F)C(=O)O [Compound A-95, (2R,3R)-2-(4-bromo-2-fluorophenoxy)-3-fluorobutanoic acid] | 39% |  |  | 

SMILES | ΔV1/2 [1] | EC50 [3] | activation at 50 µM [2] | average increase in twitch peaks ([4]; 20 mg/kg i.v., 12 Hz, cisatracurium infusion) | average increase in tetanic force ([4]; 20 mg/kg i.v., 80 Hz, cisatracurium infusion) | restore force to muscles in vivo ([4]; muscles partially inhibited by a neuromuscular blocker, summary in words)
[2H]c1cc(Br)cc([2H])c1O[C@@H](C)C(=O)O [Compound A-6, (2S)-2-[4-bromo(2,6-^2H2)phenoxy]propanoic acid] | 13.0 mV |  | 44% |  |  | 
[2H]CC([2H])[C@H](Oc1ccc(Br)cc1)C(=O)O (stereo partly drawn) [Compound A-76, (2S)-2-(4-bromophenoxy)(3,4-^2H2)butanoic acid] | 26.2 mV |  | 62% |  |  | 
